One series addresses T1, Integrin alpha-4/beta-7 (Homo sapiens, UniProt P13612+P26010).
T1 sequence (P13612 whole entry): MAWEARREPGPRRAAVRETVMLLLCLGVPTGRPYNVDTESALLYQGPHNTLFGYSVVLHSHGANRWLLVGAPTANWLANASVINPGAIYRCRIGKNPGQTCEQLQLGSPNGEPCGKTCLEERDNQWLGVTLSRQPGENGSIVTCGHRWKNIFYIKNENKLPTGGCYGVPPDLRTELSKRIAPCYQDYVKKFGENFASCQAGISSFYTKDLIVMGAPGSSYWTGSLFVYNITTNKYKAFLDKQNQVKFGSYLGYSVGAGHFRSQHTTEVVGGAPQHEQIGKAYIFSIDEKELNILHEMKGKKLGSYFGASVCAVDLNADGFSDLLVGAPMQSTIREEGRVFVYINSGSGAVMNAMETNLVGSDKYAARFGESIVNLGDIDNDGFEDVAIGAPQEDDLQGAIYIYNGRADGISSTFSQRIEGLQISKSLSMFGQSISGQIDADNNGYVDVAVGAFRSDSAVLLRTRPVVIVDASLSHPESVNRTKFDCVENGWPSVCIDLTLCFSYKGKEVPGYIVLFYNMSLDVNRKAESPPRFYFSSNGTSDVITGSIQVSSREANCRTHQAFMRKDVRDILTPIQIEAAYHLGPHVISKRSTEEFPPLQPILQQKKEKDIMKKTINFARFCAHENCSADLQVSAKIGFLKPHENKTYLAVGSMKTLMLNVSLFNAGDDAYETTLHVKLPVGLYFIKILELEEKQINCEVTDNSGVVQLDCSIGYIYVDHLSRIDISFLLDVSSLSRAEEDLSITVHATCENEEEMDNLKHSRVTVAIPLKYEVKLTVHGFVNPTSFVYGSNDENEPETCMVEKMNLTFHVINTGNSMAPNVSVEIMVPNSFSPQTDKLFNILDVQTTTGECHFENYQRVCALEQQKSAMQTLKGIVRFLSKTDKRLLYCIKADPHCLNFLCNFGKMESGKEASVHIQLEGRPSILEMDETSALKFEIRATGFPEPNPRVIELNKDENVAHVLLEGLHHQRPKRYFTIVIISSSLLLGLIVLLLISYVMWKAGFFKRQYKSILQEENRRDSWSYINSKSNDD
T1 sequence (P26010 whole entry): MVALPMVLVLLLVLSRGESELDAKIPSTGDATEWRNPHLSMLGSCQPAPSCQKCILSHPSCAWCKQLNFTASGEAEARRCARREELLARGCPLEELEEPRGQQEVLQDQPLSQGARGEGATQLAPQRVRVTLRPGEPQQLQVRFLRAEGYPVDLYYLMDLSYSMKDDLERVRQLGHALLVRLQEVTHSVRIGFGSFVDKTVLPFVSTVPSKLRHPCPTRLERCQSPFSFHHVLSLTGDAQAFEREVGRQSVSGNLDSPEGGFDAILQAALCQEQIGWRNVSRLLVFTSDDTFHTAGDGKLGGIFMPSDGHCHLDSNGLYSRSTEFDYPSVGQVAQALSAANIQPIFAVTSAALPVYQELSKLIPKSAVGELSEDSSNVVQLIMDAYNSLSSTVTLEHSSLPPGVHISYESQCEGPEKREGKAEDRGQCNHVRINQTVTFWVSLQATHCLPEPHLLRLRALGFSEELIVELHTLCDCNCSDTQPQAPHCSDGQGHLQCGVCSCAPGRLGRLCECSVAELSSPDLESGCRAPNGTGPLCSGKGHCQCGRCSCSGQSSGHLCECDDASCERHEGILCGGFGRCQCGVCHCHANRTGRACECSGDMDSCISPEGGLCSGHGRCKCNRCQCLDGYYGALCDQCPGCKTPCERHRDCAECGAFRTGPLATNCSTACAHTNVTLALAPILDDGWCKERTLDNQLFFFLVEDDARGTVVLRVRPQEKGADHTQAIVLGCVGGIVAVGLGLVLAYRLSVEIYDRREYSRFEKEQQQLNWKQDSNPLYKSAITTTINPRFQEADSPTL
Briefly: Inhibitory activity of compound against alpha4-beta7 integrin using MAdCAM-Ig ligand. Type of series: protein-complex assay.

Series [1] deals with Integrin alpha-4/beta-1 (Homo sapiens) (UniProt P05556+P13612). The series can be described thus: Inhibition of VCAM-Ig binding to very late activating antigen-4 (VLA-4) at 10 uM. Type of series: protein-complex assay.
A short description of series [2]: Bioavailability in rat (dose 1 mg/kg i.v. and 2 mg/kg p.o.). Type of series: ADME, organism-based. The note with it: in vivo, po.
Series [3] in a line: Plasma clearance of compound in rats was evaluated. Type of series: ADME, organism-based. The note with it: rat, read-out: Clp.
The nature of series [4]: Inhibitory activity of compound against very late antigen 4 using VCAM-Ig ligand. Further details: species or system Rattus norvegicus.
Series [5] is described as follows: Partition coefficient (logD). The class given is physicochemical. As to conditions: octanol/water.
Series [6] is described as follows: Dissociation constant was evaluated. Type of series: physicochemical.

Where only a bound is given, the exact number is not on record here.

Consider `COc1cccc(OC)c1-c1ccc(C[C@@H]2/N=C(/[C@@H]3CCN3S(=O)(=O)c3ccccc3)NCc3nccn3C2=O)cc1`, for which, on Integrin alpha-4/beta-7, 4090 nM corresponded to half-maximal inhibition (IC50). Besides, the inhibition (commonly the relative decrease from the control value, in per cent) in series [1] is 85%. The bioavailability (in general, the share of a dose that reaches the circulation, judged against a reference dose that is usually intravenous) in series [2] stood at 0.6%. Also, the clearance in series [3] was determined as 382 mL/min/kg.
In the case of `COc1cccc(OC)c1-c1ccc(C[C@H](/N=C(\NCC(C)(C)C)[C@@H]2CCN2S(=O)(=O)c2ccccc2)C(=O)O)cc1`, the results for the IC50 (against Integrin alpha-4/beta-7; in series [4]) were 120 nM and 0.21 nM, respectively. The same compound showed a bioavailability in series [2] of 0%. The logD (commonly the decadic logarithm of the distribution of all forms, ionised or not, between an organic phase and buffer at a given pH) in series [5] came out at 3.7. Also, the clearance in series [3] stood at 64 mL/min/kg.
With `COc1cccc(OC)c1-c1ccc(C[C@H](/N=C(\NO)[C@@H]2CCN2S(=O)(=O)c2ccccc2)C(=O)O)cc1`, the IC50 (in general, the concentration that gives 50% inhibition) on Integrin alpha-4/beta-7 is 98 nM; in series [4], 0.14 nM. In series [5], this compound displayed a logD of 2.3.
For the compound `CN/C(=N\[C@@H](Cc1ccc(-c2c(OC)cccc2OC)cc1)C(=O)O)[C@@H]1CCN1S(=O)(=O)c1ccccc1`, the pKa (usually the pH at which an ionisable group is half protonated) in series [6] is 10.5. Besides, the IC50 against Integrin alpha-4/beta-7 turned out to be 40 nM; in series [4], 0.12 nM. This compound also gave a bioavailability in series [2] of 0.7%. This compound registered a logD in series [5] of 2.4. In series [3], the clearance came out at 81 mL/min/kg.
In series [6], `COc1cccc(OC)c1-c1ccc(C[C@H](/N=C(\NS(C)(=O)=O)[C@@H]2CCN2S(=O)(=O)c2ccccc2)C(=O)O)cc1` gave a pKa of -2. In addition, the IC50 on Integrin alpha-4/beta-7 is 2.2 nM; in series [4], 0.07 nM. Moreover, in series [2], the bioavailability was found to be 1.6%. Further, the logD in series [5] worked out at 2.4. For the same compound, the clearance in series [3] turned out to be 103 mL/min/kg.
As to `COCCN/C(=N\[C@@H](Cc1ccc(-c2c(OC)cccc2OC)cc1)C(=O)O)[C@@H]1CCN1S(=O)(=O)c1ccccc1`, the IC50 against Integrin alpha-4/beta-7 came out at 65 nM; in series [4] it was 0.28 nM. Besides, in series [2], the bioavailability was 0%. Besides, the clearance in series [3] is 81 mL/min/kg.
As for `COc1cccc(OC)c1-c1ccc(C[C@H](NC[C@@H]2CCCN2S(=O)(=O)c2cc(Cl)cc(Cl)c2)C(=O)O)cc1`, the 50% inhibitory concentration (IC50) at Integrin alpha-4/beta-7 was determined as 8400 nM; in series [4], 140 nM.
Take `COc1cccc(OC)c1-c1ccc(C[C@H](NC(=O)[C@@H]2CCN2S(=O)(=O)c2cc(Cl)cc(Cl)c2)C(=O)O)cc1`: in series [4], the IC50 is 0.08 nM. In addition, the logD in series [5] worked out at 4. Moreover, the clearance in series [3] is 102 mL/min/kg.
As to `COc1cccc(OC)c1-c1ccc(C[C@H](/N=C(\N)[C@@H]2CCN2S(=O)(=O)c2cc(Cl)cc(Cl)c2)C(=O)O)cc1`, the IC50 was 16 nM at Integrin alpha-4/beta-7 and 0.05 nM in series [4]. In series [2], this compound had a bioavailability of 0.3%. In series [5], this compound showed a logD of 4.1. The clearance in series [3] worked out at 90 mL/min/kg.
As for `COc1cccc(OC)c1-c1ccc(C[C@H](/N=C(\N)[C@@H]2CCN2S(=O)(=O)c2ccccc2)C(=O)O)cc1`, the IC50 was determined as 19 nM against Integrin alpha-4/beta-7 and 0.1 nM in series [4]. Also, in series [2], the bioavailability was determined as 0.2%. Besides, the clearance in series [3] worked out at 61 mL/min/kg.
`COc1cccc(OC)c1-c1ccc(C[C@H](/N=C(\NC#N)[C@@H]2CCN2S(=O)(=O)c2ccccc2)C(=O)O)cc1` showed a pKa in series [6] of -2. The IC50 on Integrin alpha-4/beta-7 stood at 4.1 nM; in series [4] it was 0.09 nM. This compound came in with a bioavailability in series [2] of 3%. Further, the logD in series [5] worked out at 2.5. The clearance in series [3] turned out to be 93 mL/min/kg.
In series [4], `COc1cccc(OC)c1-c1ccc(C[C@H](NC(=O)[C@]2(C)CCN2S(=O)(=O)c2cc(Cl)cc(Cl)c2)C(=O)O)cc1` came in with an IC50 of 0.07 nM. Besides, in series [3], the clearance was determined as 110 mL/min/kg.
Regarding `COc1cccc(OC)c1-c1ccc(C[C@H](/N=C(\NCC(=O)O)[C@@H]2CCN2S(=O)(=O)c2ccccc2)C(=O)O)cc1`, the IC50 is 78 nM at Integrin alpha-4/beta-7 and 0.17 nM in series [4]. The same compound returned a logD in series [5] of 1.9.
For the compound `COc1cccc(OC)c1-c1ccc(C[C@@H]2N=C([C@@H]3CCN3S(=O)(=O)c3ccccc3)NNC2=O)cc1`, the bioavailability in series [2] was found to be 3.3%. The IC50 in series [4] was 58 nM. In series [5], the log distribution coefficient (logD) amounted to 3.2. The clearance in series [3] was found to be 86 mL/min/kg.
For the compound `COc1cccc(OC)c1-c1ccc(C[C@H](OC(=O)[C@@H]2CCN2S(=O)(=O)c2cc(Cl)cc(Cl)c2)C(=O)O)cc1`, the IC50 on Integrin alpha-4/beta-7 came to 3000 nM; in series [4] it was 15 nM.
`COc1cccc(OC)c1-c1ccc(C[C@H](/N=C(\NCC2CCOOCC2)[C@@H]2CCN2S(=O)(=O)c2ccccc2)C(=O)O)cc1`: the results for the IC50 (against Integrin alpha-4/beta-7; in series [4]) were 43 nM and 0.28 nM, respectively. Also, in series [2], the bioavailability is 0.6%. In addition, in series [5], the logD amounted to 2.6. In addition, the clearance in series [3] was 67 mL/min/kg.
On to `COc1cccc(OC)c1-c1ccc(C[C@H](/N=C(\NCc2ccccn2)[C@@H]2CCN2S(=O)(=O)c2ccccc2)C(=O)O)cc1`, for which the half-inhibitory concentration (IC50) was 35 nM at Integrin alpha-4/beta-7 and 0.15 nM in series [4]. In series [5], the logD came to 2.8.
As to `COc1cccc(OC)c1-c1ccc(C[C@H](NC(=O)[C@@H]2CCN2S(=O)(=O)c2ccccc2)C(=O)O)cc1`, the IC50 is 78 nM at Integrin alpha-4/beta-7 and 0.1 nM in series [4]. The same compound had a bioavailability in series [2] of 1.4%. The compound further displayed a logD in series [5] of 2.6. The clearance in series [3] is 107 mL/min/kg.
Take `COc1cccc(OC)c1-c1ccc(C[C@H](/N=C(\NCC(F)(F)F)[C@@H]2CCN2S(=O)(=O)c2ccccc2)C(=O)O)cc1`: the half-inhibitory concentration (IC50) is 27 nM against Integrin alpha-4/beta-7 and 0.13 nM in series [4]. Also, the bioavailability in series [2] is 1.8%. Also, the logD in series [5] is 3.3. In addition, the clearance in series [3] stood at 45 mL/min/kg.
For `CN/C(=N\[C@@H](Cc1ccc(-c2c(OC)cccc2OC)cc1)C(=O)O)[C@@H]1CCN1S(=O)(=O)c1cc(Cl)cc(Cl)c1`, the pKa in series [6] turned out to be 10.2. The IC50 on Integrin alpha-4/beta-7 came to 21 nM; in series [4] it was 0.05 nM. Further, in series [2], the bioavailability is 0.8%. The same compound gave a logD in series [5] of 2.7. Besides, the clearance in series [3] came out at 85 mL/min/kg.
On to `COc1cccc(OC)c1-c1ccc(C[C@@H](C(=O)O)N(C)C(=O)[C@@H]2CCN2S(=O)(=O)c2cc(Cl)cc(Cl)c2)cc1`, for which the IC50 in series [4] was determined as 350 nM.
The compound `CON/C(=N\[C@@H](Cc1ccc(-c2c(OC)cccc2OC)cc1)C(=O)O)[C@@H]1CCN1S(=O)(=O)c1ccccc1` yielded a pKa in series [6] of under 4. Moreover, the IC50 on Integrin alpha-4/beta-7 was 35 nM; in series [4] it was 0.17 nM. Further, the bioavailability in series [2] was determined as 9.3%. This compound also registered a pH-dependent lipophilicity (logD) in series [5] of 2.8. Also, the clearance in series [3] came out at 79 mL/min/kg.

These data come from ChEMBL document CHEMBL1148235, “Amidines as amide bond replacements in VLA-4 antagonists” (Bioorg Med Chem Lett, 2004).
